These results are taken from US20190269705A1, “METHODS AND MATERIALS FOR TREATING GRAFT VERSUS HOST DISEASE” (Regents of the University of Minnesota, priority 2017, published 2019).

One assay has as its system Th1 cells. Kind of assay: ATAC-Seq chromatin accessibility, Th1. Type of assay: cell-based, mouse. Conditions: Th1, 500 nM CB839, day 5. The protocol:
ATAC-Seq: Crude nuclei pellets were isolated as described elsewhere (see, e.g., Buenrostro et al., 2013 Nat Meth. 10(12):1213-1218) with modifications. Briefly, naïve CD4 T cells were skewed to Th1 and Th17 subsets in vitro with vehicle or in the presence of 500 nM CB839. At Day 5, T cells were re-isolated for CD4+ cells using Miltenyi CD4+ negative selection kit (Cat #: 130-104-454). 1×10^5 cells were removed for nuclei extraction in ATAC-Seq lysing buffer. Cells were exposed to Tn5+ adaptor proteins from Nextera DNA for 30 min at 37° C. and immediately placed on ice. Transposed eluate was amplified via PCR using Nextera DNA preparation kit (Illumina, Cat #: FC-121-1030), NEBNext High-fidelity 2× PCR mix (New England Labs, Cat #: M0541), and multiplexed (Illumina, Cat #: FC-121-1011). Samples were purified using Zymo DNA cleanup kit (Cat #: D4011). QC of samples was run on bioanalyzer before being sent for sequencing. RNA-Seq: Th1 and Th17 cells skewed with or without CB839 were isolated as previously described and total RNA extracted (Qiagen RNEasy Mini kit, Cat #: 74104). RNA was sent to VANTAGE core at Vanderbilt University and sequenced on HiSeq 2500. n=3 for each sample was analyzed. Samples were analyzed using the R program DESeq2. GSEA was performed using MSigDB. […]

Another assay deals with Th17 cells. Kind of assay: 3H-2-deoxyglucose uptake and ECAR, Th17. It is filed as cell-based, mouse. The protocol:
Glucose uptake assays were performed as described elsewhere (see, e.g., Macintyre et al., 2014 Cell Metab. 20(1):61-72). Naïve CD4+ T cells were differentiated into Th1 and Th17 cells, in triplicate, in the presence or absence of CB839 over 5 days and spun down after reisolation using CD4 kit as previously described. Cells were washed 2× in PBS, counted, then rested in 1 mL Kreb's Ringers HEPES (KRH) for 10 minutes. Cells were spun and resuspended to 5×10^5 cells/50 uL KRH for glucose uptake assay. Briefly, cells were […]. Cells incubated for 10 minutes at 37° C. Immediately after incubation, reaction was quenched with 200 μM phloretin (Calbiochem, Cat #: 524488). Cells were spun, washed, and then resuspended in scint fluid for counting on Beckman-Coulter scintillation counter. Pathway analysis of altered metabolites was performed using Metaboanalyst 3.0 (metaboanalyst. ca/faces/home.xhtml).
Experiments were carried out on Agilent Seahorse XF96 bioanalyzer (Agilent). Briefly, wild type CD4+ cells were isolated as previous and activated for 3 days on CD3/CD28 as previously described, or skewed to Th1 and Th17 subsets as described above. T cells were spun onto XF96 Cell-Tak (BD Bioscience, Cat #: 354240) coated plates and rested in Seahorse XF RPMI 1640 media supplemented with glutamine, sodium pyruvate, and glucose. For immediate metabolic response, CB839 and UK5099 were injected separately or in combination, and OCR and ECAR measured.
Glucose uptake assays were performed as previously described (Macintyre et al.,2014). Naïve CD4+ T cells were differentiated into Th1 and Th17 cells, in triplicate, in the presence or absence of CB839 over five days and spun down after reisolation using CD4 kit as previously described. At day 3 and 5, cells were removed, washed twice in PBS, counted, then rested in 1 mL Kreb's Ringers HEPES (KRH) for at least 10 minutes. Cells were spun and resuspended to 5×10^5 cells/50 μL KRH for glucose uptake assay. Briefly, 3H-2-deoxyglucose was suspended in KRH bubble layered in oil, and cells were added to this bubble. Cells were incubated for 10 minutes at 37° C. Immediately after incubation, reaction was quenched with 200 μM phloretin (Calbiochem, Cat #: 524488). Cells were spun, washed, and then resuspended in scintilation fluid for counting on Beckman-Coulter scintillation counter (3H, 1 min/sample read).
Experiments were carried out on Agilent Seahorse XF96 bioanalyzer (Agilent). Briefly, wild type CD4+ cells were isolated as previous and activated for 3 days on αCD3/CD28 coated plates as previously described, or skewed to Th1 and Th17 subsets as described above. T cells were isolated and spun onto XF96 Cell-Tak (BD Bioscience, Cat #: 354240) coated plates and rested in Seahorse XF RPMI 1640 media supplemented with glutamine, sodium pyruvate, and glucose. For immediate metabolic response, 1 μM CB839 and 5 μM UK5099 (Cat #: PZ0160-5MG) were injected separately or in combination, and OCR and ECAR measured. For activation response, 1 uM CB839 was injected into IL-7 maintained naïve CD4+ T cells in seahorse medium and allowed to incubate for 20 minutes, followed by soluble αCD3/CD28 injection.

[1] abbreviates: Th17, day 5, listed as GLS inhibitor.

Structures are written as SMILES.

For the molecule `O=C(Cc1cccc(OC(F)(F)F)c1)Nc1ccc(CCCCc2nnc(NC(=O)Cc3ccccn3)s2)nn1` [CB839], the “genes with regions of altered chromatin accessibility” value with Th1 cells is “more genes with regions of increased accessibility than genes with decreased accessibility”. For the same molecule, the glucose uptake result is on record as “decreased” in the assay on Th17 cells (Th17, day 5); “remained impaired” in the assay with Th17 cells (setting [1]); “reduced” with Th17 cells (Th17, day three). Further, the “media acidification (ECAR, glycolytic flux)” value with Th17 cells (Th17, day 5) is listed as “decreased”; in the assay on Th17 cells (setting [1]), “remained impaired”.
